This note sets out measurements from ChEMBL document CHEMBL4699435, “Synthesis and biological screening of a library of macamides as TNF-alpha inhibitors” (RSC Med Chem, 2020).

A short description of data set [1]: Cytotoxicity against human THP-1 cells assessed as reduction in cell viability incubated for 72 hrs by MTT assay. In kind it is cell-based.
Data set [2] deals with THP-1. Kind of data set: Inhibition of LPS-induced TNFalpha production in human THP-1 cells incubated for 2 hrs followed by LPS stimulation and measured after 12 hrs by ELISA. In kind it is functional, cell-based. For orientation: An ELISA detects its analyte on a solid surface through an enzyme-linked reagent.
Data set [3] has as its system THP-1. The experiment in a line: Potency index, ratio of IC50 of N-(2-hydroxyethyl)-7Z,10Z,13Z,16Z-docosatetraenamide to IC50 of compound for inhibition of LPS-induced TNFalpha production in human THP-1 cells incubated for 2 hrs followed by LPS stimulation and measured after 12 hrs by ELISA. In kind it is functional.
In data set [4] the test system is THP-1. The experiment in a line: Potency index, ratio of IC50 of N-oleoyldopamine-macamide to IC50 of compound for inhibition of LPS-induced TNFalpha production in human THP-1 cells incubated for 2 hrs followed by LPS stimulation and measured after 12 hrs by ELISA. In kind it is functional.
Data set [5] concerns THP-1. The experiment in a line: Potency index, ratio of IC50 of C87 to IC50 of compound for inhibition of LPS-induced TNFalpha production in human THP-1 cells incubated for 2 hrs followed by LPS stimulation and measured after 12 hrs by ELISA. In kind it is functional.

As to `CCCCC/C=C\C/C=C\CCCCCCCC(=O)NC(C)c1cc(C)cc(C)c1` (configuration not stated), the CC50 at 72 h in data set [1] is 93.2 µM. The molecule further showed a half-inhibitory concentration (IC50) with THP-1 [2] of 0.08 µM.
As to `CCCCC/C=C\C/C=C\CCCCCCCC(=O)NC(C)C12CC3CC(CC(C3)C1)C2` (configuration not stated), the CC50 at 72 h in data set [1] was found to be 90.9 µM. Moreover, in the data set with THP-1 [2], the IC50 came to 0.78 µM.
The corresponding values for `CCCCC/C=C\C/C=C\CCCCCCCC(=O)NC(C)c1ccccc1` (configuration not stated) [MALINAMIDE] are 95.8 µM and 5.2 µM.
The corresponding values for `CCCCC/C=C\C/C=C\CCCCCCCC(=O)NC(C)c1ccc(C)cc1` (configuration not stated) are 95 µM and 0.62 µM.
Regarding `CCCCCCCC/C=C\CCCCCCCC(=O)O` [OLEIC ACID], the CC50 at 72 h in data set [1] is 100 µM. In addition, 79 µM corresponded to half-maximal inhibition in the data set on THP-1 [2] (IC50).
The like results for `CCCCCCCCCCCCCCCC(=O)NCc1ccccc1` were, in that order, 100 µM and 43.1 µM.
As for `CCCCC/C=C\C/C=C\CCCCCCCC(=O)NC(C)c1cccc(C)c1` (configuration not stated), the CC50 at 72 h in data set [1] is 91.7 µM. In the data set on THP-1 [2], this molecule gave an IC50 of 0.33 µM.
The like results for `CCCCC/C=C\C/C=C\CCCCCCCC(=O)NC(CC)c1ccccc1` (configuration not stated) were, in that order, 96.5 µM and 19.7 µM.
Turning to `CCCCC/C=C\C/C=C\CCCCCCCC(=O)NC(C)c1ccc(CC)cc1` (configuration not stated), the CC50 at 72 h in data set [1] came out at 89.8 µM. In the data set on THP-1 [2], this molecule registered an IC50 of 1.21 µM.
The corresponding values for `CCCCC/C=C\C/C=C\CCCCCCCC(=O)NNc1ccccc1` are 98.1 µM and 8.9 µM.
Consider `CCCCC/C=C\C/C=C\CCCCCCCC(=O)NC(C)c1ccc(O)cc1` (configuration not stated), for which the CC50 at 72 h in data set [1] came to 93.5 µM. The molecule further showed an IC50 in the data set with THP-1 [2] of 1.84 µM.
For `CCCCCCCC/C=C\CCCCCCCC(=O)NCc1ccccc1`, the CC50 at 72 h in data set [1] was 97.3 µM. For the same molecule, the IC50 in the data set on THP-1 [2] came to 15.2 µM.
Take `CCCCC/C=C\C/C=C\CCCCCCCC(=O)Nc1ccccc1`: the CC50 at 72 h in data set [1] is 97.8 µM. In the data set with THP-1 [2], the IC50 was determined as 21 µM.
`CCCCC/C=C\C/C=C\CCCCCCCC(=O)NC(C)C(C)(C)C` (configuration not stated): the CC50 at 72 h in data set [1] was determined as 94.7 µM. The molecule further came in with an IC50 in the data set on THP-1 [2] of 1 µM.
The corresponding values for `CCCCC/C=C\C/C=C\CCCCCCCC(=O)NC(C)c1ccc(Br)cc1` (configuration not stated) are 81.4 µM and 0.74 µM.
The like results for `CCCCC/C=C\C/C=C\CCCCCCCC(=O)NCc1ccccc1` were, in that order, 98.4 µM and 14.2 µM.
Take `CCCCC/C=C\C/C=C\CCCCCCCC(=O)NCCc1ccccc1`: the CC50 at 72 h in data set [1] stood at 88.2 µM. Moreover, the midpoint of inhibition in the data set with THP-1 [2], the IC50, lay at 15.7 µM.
For the molecule `CCCCC/C=C\C/C=C\CCCCCCCC(=O)NCCCc1ccccc1`, the CC50 at 72 h in data set [1] was found to be 80.3 µM. In the data set with THP-1 [2], this molecule showed an IC50 of 8.3 µM.
As to `CCCCCCCC(=O)NCc1ccccc1`, the half-maximal cytotoxic concentration (CC50) at 72 h in data set [1] was 100 µM. In the data set on THP-1 [2], this molecule showed an IC50 of 58.7 µM.
The corresponding values for `CCCCC/C=C\C/C=C\CCCCCCCC(=O)NC(CO)c1ccccc1` (configuration not stated) are 98 µM and 56.8 µM.
Take `CCCCC/C=C\C/C=C\CCCCCCCC(=O)OC(C)c1cc(C)cc(C)c1` (configuration not stated): the 50% cytotoxic concentration (CC50) at 72 h in data set [1] was 90.1 µM. This molecule had an IC50 in the data set with THP-1 [2] of 0.009 µM. The “Ratio IC50” value was 200 in the data set with THP-1 [3], 200 in the data set with THP-1 [4] and 12 in the data set with THP-1 [5].
As to `CCCCC/C=C\C/C=C\CCCCCCCC(=O)NC(C)(C)c1ccccc1`, the CC50 at 72 h in data set [1] is 97.3 µM. The molecule also had an IC50 in the data set with THP-1 [2] of 13.1 µM.
Regarding `CCCCC/C=C\C/C=C\CCCCCCCC(=O)NC(C)c1ccc(F)cc1` (configuration not stated), the CC50 at 72 h in data set [1] turned out to be 82.5 µM. In the data set on THP-1 [2], this molecule displayed an IC50 of 0.78 µM.
In the case of `CCCCC/C=C\C/C=C\CCCCCCCC(=O)NC(C)C1CCCCC1` (configuration not stated), the CC50 at 72 h in data set [1] is 93.2 µM. Inhibition in the data set on THP-1 [2] was half-maximal at 0.71 µM (IC50).
The corresponding values for `CCCCCCCC/C=C\CCCCCCCC(=O)NCCc1ccc(O)c(O)c1` [OLEOYL DOPAMINE] are over 100 µM and 3.54 µM.
The corresponding values for `CCCCCCCCCCCCCCCCCC(=O)NCc1ccccc1` are 100 µM and 16.6 µM.
The like results for `CCCCC/C=C\C/C=C\CCCCCCCC(=O)OCc1ccccc1` were, in that order, 95.4 µM and 6.4 µM.

One may read the CC50 as the concentration at which the toxic effect on the cells reaches its halfway point. What is called IC50 is the concentration needed to halve the response being measured. Higher therefore signals weaker potency in that assay.
